Values of other authors in patent US12596089B2, “Devices, systems, and methods for antimicrobial susceptibility testing” (Avails Medical, Inc., priority 2022, dated 2026).

Legend:
[1] = system: CDC-846 strain of E. coli; conditions: stated as known
[2] = system: CDC-650 strain of E. coli; conditions: stated as known

For `CO/N=C(\C(=O)N[C@@H]1C(=O)N2C(C(=O)O)=C(CSc3nc(=O)c(=O)[nH]n3C)CS[C@H]12)c1csc(N)n1` [ceftriaxone], which “susceptibility of the bacteria to the anti-infective” value [1] is on record?
Its value is “resistant”.

And the “susceptibility of the bacteria to the anti-infective” value [2]?
Its value is “highly susceptible”.
